Columns and labels:
Assay type in all cases: functional, tissue-based
Left cardiac atrium [1] = experiment: Negative ionotropic activity in electrically-paced Cavia porcellus (guinea pig) left atrium measured immediately by isometric transducer analysis in absence of benzalkonium/prazosin
Right cardiac atrium [2] = experiment: Negative ionotropic activity in electrically-paced Cavia porcellus (guinea pig) right atrium assessed as effect on force measured immediately by isometric transducer analysis in absence of benzalkonium/prazosin
Left cardiac atrium [3] = experiment: Negative ionotropic activity in electrically-paced Cavia porcellus (guinea pig) left atrium measured after 60 min by isometric transducer analysis in presence of benextramine/4-DAMP mustard; conditions: 1 h
Right cardiac atrium [4] = experiment: Negative […] activity in electrically-paced Cavia porcellus (guinea pig) right atrium assessed as effect on force measured after 60 min by isometric transducer analysis in presence of benextramine/4-DAMP mustard; conditions: 1 h
Left cardiac atrium [5] = experiment: Negative ionotropic activity in electrically-paced Cavia porcellus (guinea pig) left atrium measured after 60 min by isometric transducer analysis in absence of benextramine/4-DAMP mustard; conditions: 1 h
Right cardiac atrium [6] = experiment: Negative […] activity in electrically-paced Cavia porcellus (guinea pig) right atrium assessed as effect on force measured after 60 min by isometric transducer analysis in absence of benextramine/4-DAMP mustard; conditions: 1 h

Question: With `C#CCOC(=O)C1=CCCN(C)C1` [ARECAIDINE PROPARGYL ESTER] as the compound, how does the EC50 (Left cardiac atrium [1]) read?
Answer: 4.57 nM

Question: And the EC50 (Right cardiac atrium [2])?
Answer: 1.7 nM

Question: For `CCCCCCCCCCCCNC(=O)[C@@H](N)CCCCN` [N-DODECYL LYSINE AMIDE], which EC50 (Left cardiac atrium [3]) is on record?
Answer: 0.363 nM

Question: And the EC50 (Right cardiac atrium [4])?
Answer: 0.282 nM

Question: What about the EC50 (Left cardiac atrium [5]) of the same compound?
Answer: 0.417 nM

Question: And the EC50 (Right cardiac atrium [6])?
Answer: 0.417 nM

Source: ChEMBL document CHEMBL3044753, “Polyamines May Modulate Both G Protein-Coupled Receptors and G Proteins” (Med Chem Res, 2004)
